From patent publication US20120071475A1, “UREA DERIVATIVES HAVING PI3K-INHIBITING ACTIVITY” (SHIONOGI & CO., LTD., priority 2009, published 2012)

What was measured:
[1] = molecular target: T1, PI3Kγ (Homo sapiens, UniProt P48736); assay: PI3Kγ inhibitory activity (PI3-kinase HTRF assay, inhibition ratio); type: biochemical; conditions: 0.5 h, compound at 10 μmol/L; read-out: PI3Kg Inhibition Ratio % (10 μM)
Description: For each compound synthesized in the above Examples, PI3Kγ inhibitory activity was measured.
The PI3Kγ inhibitory activity of a compound was evaluated using PI3-kinase HTRF™ assay (Millipore) according to the following procedure:
To each well of a testing plate, 5 μL of a compound solution containing 10% DMSO (40 μmol/L as the concentration of the compound), 5 μL of a substrate solution (40 μmol/L phosphatidylinositol (4,5)-bisphosphate, 20 mmol/L MgCl2, 10 mmol/L DTT), and 5 μL of an enzyme solution (80 μg/mL PI-3 kinase y, 10 mmol/L MgCl2, 5 mmol/L DTT) were added, and then allowed to stand for 10 minutes.
Then, 5 μL of a reaction solution (40 μmol/L ATP, 10 mmol/L MgCl2, 5 mmol/L DTT) was added thereto. After reacting for 30 minutes at room temperature, 5 μL of a solution containing EDTA and biotinylated phosphatidylinositol (3,4,5)-triphosphate was added to quench the reaction.
5 μL of a detection reagent containing a europium-labeled anti-GST antibody, the GST-tagged PH domain, and allophycocyanin-labeled streptavidin was added thereto. After 18 hours, HTRF (excitation wavelength: 330 nm, measured wavelengths: 620 nm and 665 nm) was measured.
HTRF ratio was defined as the value obtained by dividing the amount of fluorescence obtained at the measured wavelength 665 nm by the amount of fluorescence obtained at 620 nm. The HTRF ratio in the absence of a compound was defined as 100% activity and the HTRF ratio in the absence of PI-3 kinase y was defined as 0% activity to calculate an inhibition ratio, which was defined as the PI3Kγ inhibitory activity of a compound at 10 μmol/L.

[2] = molecular target: T2, hERG channel (IKr) (Homo sapiens, UniProt Q12809); assay: hERG test (whole-cell patch-clamp, IKr in HEK293 cells); type: cell-based; conditions: human, HEK293 cells expressing hERG channel, pH 7.4, inhibition of maximum tail current (IKr), compound 1 μM
T2 construct: expressed in transfected cells; host or cells: HEK293
Description: For the purpose of risk evaluation of QT interval extension of electrocardiogram, the activity on delayed rectification K^+ current (IKr), which plays an important role in a cardiac ventricle repolarization process, was examined using the HEK293 cell that was made to express human ether-a-go-go related gene (hERG) channel.
Using an automatic patch-clamp system (PatchXpress 7000A, Axon Instruments Inc.), by a whole-cell patch-clamp method, after the cell was maintained at a membrane potential of −80 mV, IKr induced upon applying depolarizing stimulation of +50 mV for 2 seconds and further applying repolarizing stimulation of −50 mV for 2 seconds was recorded. After generated electric current became stable, a test substance dissolved at an intended concentration in extracellular fluid (137 mmol/L NaCl, 4 mmol/L KCl, 1.8 mmol/L CaCl2.2H2O, 1 mmol/L MgCl2.6H2O, 10 mmol/L glucose, 10 mmol/L HEPES (4-(2-hydroxyethyl)-1-piperazineethanesulfonic acid), pH=7.4) was applied to the cell for 10 minutes under room temperature condition. From the obtained IKr, the absolute value of the maximum tail current was measured using analysis software (DataXpress ver. 1, Molecular Devices Corporation) and the value of the electric current in a maintained membrane potential as baseline. Moreover, an inhibition ratio for the maximum tail current prior to the application of the test substance was calculated and then compared with a group of media-application (0.1% dimethylsulfoxide solution) to evaluate influence of the test substance on IKr.

[3] = Metabolic stability test (pooled human liver microsome); type: in vitro ADME; conditions: percentage of test compound remained after 30 minutes, pooled human liver microsome 0.5 mg protein/mL, 1 mmol/L NADPH, 37° C., compound 0.5 μM
Description: After a subject compound was reacted for a certain time using a pooled human liver microsome commercially available, a reacted sample and an unreacted sample are compared to calculate a survival ratio, and then the degree of metabolism in the liver was evaluated.
0.2 mL of a buffer solution (50 mmol/L of Tris-HCl in pH 7.4, 150 mmol/L of potassium chloride, and 10 mmol/L of magnesium chloride) containing a human liver microsome of 0.5 mg protein/mL was reacted in the presence of 1 mmol/L NADPH at 37° C. for 0 or 30 minutes (oxidative reaction). After reacting, 50 μL of the reaction solution was added to 100 μL of a solution of methanol/acetonitrile (1/1 (v/v)), mixed, and then centrifuged at 3000 rpm for 15 minutes. The test compound in the supernatant was quantitated with LC/MS/MS. The amount of the compound at a reaction time of 0 minute was defined as 100% and, based on that, the percentage of the test compound remained after reacting for 30 minutes was calculated.

[4] = molecular target: T1, PI3Kγ; assay: PI3Kγ inhibitory activity (Ki value); type: biochemical; conditions: read-out: PI3Kγ Ki value
Description: The PI3Kγ inhibitory activity (Ki value) of a compound was evaluated according to the following procedure:
5 μL of a compound solution containing 10% DMSO and […] of a compound was changed to 5 μL of a compound solution containing 10% DMSO and either 200, 64, 20, 6.4, 2, 0.64, or 0.20 μmol/L of the compound (optionally, this is diluted to a lower concentration). Using a method similar to the method for measuring PI3Kγ inhibitory activity, inhibition ratios of PI3Kγ were measured in the presence of the compound at 50, 16, 5, 1.6, 0.5, 0.16, and 0.05 μmol/L (optionally, a lower concentration). Then an IC50 value was calculated by a logistic approximation method or the linear regression method using two concentrations that cross 50% inhibition. Separately, the ATP concentration in the reaction solution (40 μmol/L ATP, 10 mmol/L MgCl2, 5 mmol/L DTT) at the time of the start of a reaction in the absence of the compound was changed to 80, 40, 20, 10, 5, 2.5, 1.25, or 0.625 μmol/L. Then, HTRF ratios were measured by a similar method. The value obtained by subtracting the HTRF ratio at each ATP concentration from the HTRF ratio in the absence of PI-3 kinase y was defined as the value obtained by multiplying reaction rate (v) at each ATP concentration with a constant. The Michaelis-Menten constant Km was then calculated by the Lineweaver-Burk plot method. The Ki value of a compound was calculated by the following formula wherein “μM” denotes “μmol/L.”
Ki value ═IC50 value/(1+test ATP concentration (μM)/Km (μM))

[5] = molecular target: T3, CYP3A4 (Homo sapiens, UniProt P08684); assay: CYP3A4 fluorescence MBI test; type: in vitro ADME; conditions: difference in IC50 with 0 or 30 minutes pre-reaction; CYP3A4 expressed in E. coli, substrate 7-BFC
T3 construct: host or cells: E. coli
Description: The CYP3A4 fluorescence MBI test is a test to examine the enhancement of CYP3A4 inhibition of a compound by a metabolic reaction. The test was performed using as an index, a reaction to produce a metabolite 7-hydroxytrifluoromethylcoumarin (HFC) which emits fluorescence, in which CYP3A4 expressed in E. coli was used as an enzyme and 7-benzyloxytrifluoromethylcoumarin (7-BFC) is debenzylated by CYP3A4 enzyme.
The reaction conditions are as follows: substrate: 5.6 μmol/L 7-BFC; pre-reaction time; 0 or 30 minutes; reaction time: 15 minutes; reaction temperature: 25° C. (room temperature); content of CYP3A4 (an enzyme expressed in E. coli): […] at the time of a pre-reaction and […] (when diluted 10 times) at the time of a reaction; the concentrations of a test drug: 0.625, 1.25, 2.5, 5, 10, and 20 μmol/L (6 points).
In a 96-well plate, an enzyme solution and a test drug solution were added as a pre-reaction solution into K-Pi buffer solution (pH 7.4) in the aforementioned ratio. A portion thereof was transferred to another 96-well plate to be diluted ten times with a substrate and a K-Pi buffer solution. A coenzyme, NADPH, was then added to start a reaction, which is the index (this is without a pre-reaction). After reacting for a predetermined time, 4:1 of acetonitrile: 0.5 mol/L Tris (trishydroxyaminomethane) was added to quench the reaction. To the remaining pre-reaction solution, NADPH was added to start a pre-reaction (this is with a pre-reaction). After pre-reacting for a predetermined time, a portion thereof was transferred to another plate to be diluted ten times with a substrate and K-Pi buffer solution, and thereby the index reaction is started. After reacting for a predetermined time, 4:1 of acetonitrile:0.5 mol/L Tris (trishydroxyaminomethane) was added to quench the reaction. For each plate in which the index reaction was carried out, the fluorescence value of a metabolite 7-HFC was measured with a fluorescent plate reader (Ex=420 nm, Em=535 nm).
The case wherein only DMSO (a solvent which dissolved a drug) was added to a reaction system was defined as a control (100%). When a test drug solution was added, the remaining activity (%) at each concentration was calculated, and then IC50 was calculated with a concentration and an inhibition ratio by an inverse estimation using a logistic model. When the difference in IC50 value is 5 μmol/L or more, the compound is shown as (+). When 3 μmol/L or less, the compound is shown as (−).

T1 sequence (P48736 whole entry, species assumed): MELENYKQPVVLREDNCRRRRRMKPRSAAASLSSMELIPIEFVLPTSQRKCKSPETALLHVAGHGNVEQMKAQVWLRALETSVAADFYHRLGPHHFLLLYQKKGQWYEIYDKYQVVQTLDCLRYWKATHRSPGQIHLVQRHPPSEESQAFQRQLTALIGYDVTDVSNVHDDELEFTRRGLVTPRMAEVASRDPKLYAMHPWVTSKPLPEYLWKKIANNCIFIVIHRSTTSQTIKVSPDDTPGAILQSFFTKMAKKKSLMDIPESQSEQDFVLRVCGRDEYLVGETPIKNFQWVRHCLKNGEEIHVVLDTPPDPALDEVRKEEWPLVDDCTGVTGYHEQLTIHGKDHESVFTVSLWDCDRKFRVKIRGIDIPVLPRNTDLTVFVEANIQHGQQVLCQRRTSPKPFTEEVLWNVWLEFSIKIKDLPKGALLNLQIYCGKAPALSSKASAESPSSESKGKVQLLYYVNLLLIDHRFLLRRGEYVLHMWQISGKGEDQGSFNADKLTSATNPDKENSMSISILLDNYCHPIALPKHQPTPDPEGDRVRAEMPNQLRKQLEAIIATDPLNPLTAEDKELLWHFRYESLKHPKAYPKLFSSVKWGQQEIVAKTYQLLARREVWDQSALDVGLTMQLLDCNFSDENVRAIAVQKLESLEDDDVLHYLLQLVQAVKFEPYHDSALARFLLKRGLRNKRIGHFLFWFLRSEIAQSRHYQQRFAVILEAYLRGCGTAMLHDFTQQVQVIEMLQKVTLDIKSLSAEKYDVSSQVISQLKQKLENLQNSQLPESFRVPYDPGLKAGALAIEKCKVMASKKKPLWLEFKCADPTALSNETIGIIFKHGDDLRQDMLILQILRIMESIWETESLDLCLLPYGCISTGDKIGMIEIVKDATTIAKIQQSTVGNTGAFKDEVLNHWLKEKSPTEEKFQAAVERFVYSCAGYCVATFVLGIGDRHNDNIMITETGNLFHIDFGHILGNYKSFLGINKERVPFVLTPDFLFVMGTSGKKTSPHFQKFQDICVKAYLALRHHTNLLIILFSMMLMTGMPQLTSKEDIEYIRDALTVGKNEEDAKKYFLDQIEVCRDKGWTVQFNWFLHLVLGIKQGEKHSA
T2 sequence (Q12809 whole entry): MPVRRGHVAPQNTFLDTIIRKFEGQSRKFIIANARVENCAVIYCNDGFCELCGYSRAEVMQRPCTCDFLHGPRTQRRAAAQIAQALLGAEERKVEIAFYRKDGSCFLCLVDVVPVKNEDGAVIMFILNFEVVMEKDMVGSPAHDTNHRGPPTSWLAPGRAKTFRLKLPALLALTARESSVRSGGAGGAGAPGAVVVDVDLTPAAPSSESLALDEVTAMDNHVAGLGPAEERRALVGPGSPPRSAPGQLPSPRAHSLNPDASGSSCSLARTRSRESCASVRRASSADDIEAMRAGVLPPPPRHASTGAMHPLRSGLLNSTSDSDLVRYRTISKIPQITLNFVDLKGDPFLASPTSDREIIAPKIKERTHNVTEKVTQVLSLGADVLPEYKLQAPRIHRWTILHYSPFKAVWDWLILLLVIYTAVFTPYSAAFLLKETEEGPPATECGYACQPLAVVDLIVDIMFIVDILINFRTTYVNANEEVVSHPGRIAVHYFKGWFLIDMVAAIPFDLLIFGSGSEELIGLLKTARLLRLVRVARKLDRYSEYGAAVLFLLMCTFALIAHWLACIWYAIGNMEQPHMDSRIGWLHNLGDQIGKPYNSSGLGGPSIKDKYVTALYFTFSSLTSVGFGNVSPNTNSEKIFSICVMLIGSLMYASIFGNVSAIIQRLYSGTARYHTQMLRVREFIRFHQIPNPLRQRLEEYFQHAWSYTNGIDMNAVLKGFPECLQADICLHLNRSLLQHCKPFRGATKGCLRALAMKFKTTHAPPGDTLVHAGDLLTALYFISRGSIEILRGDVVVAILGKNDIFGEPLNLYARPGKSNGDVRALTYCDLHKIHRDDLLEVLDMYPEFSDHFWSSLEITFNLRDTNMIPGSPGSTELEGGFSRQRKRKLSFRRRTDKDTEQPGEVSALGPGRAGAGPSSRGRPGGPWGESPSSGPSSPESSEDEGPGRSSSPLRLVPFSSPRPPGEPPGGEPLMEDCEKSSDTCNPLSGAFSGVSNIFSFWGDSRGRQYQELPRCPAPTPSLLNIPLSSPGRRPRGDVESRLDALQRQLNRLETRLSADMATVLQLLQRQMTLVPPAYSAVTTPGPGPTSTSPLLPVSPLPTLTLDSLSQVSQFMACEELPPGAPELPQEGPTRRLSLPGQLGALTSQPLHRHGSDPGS
T3 sequence (P08684 whole entry): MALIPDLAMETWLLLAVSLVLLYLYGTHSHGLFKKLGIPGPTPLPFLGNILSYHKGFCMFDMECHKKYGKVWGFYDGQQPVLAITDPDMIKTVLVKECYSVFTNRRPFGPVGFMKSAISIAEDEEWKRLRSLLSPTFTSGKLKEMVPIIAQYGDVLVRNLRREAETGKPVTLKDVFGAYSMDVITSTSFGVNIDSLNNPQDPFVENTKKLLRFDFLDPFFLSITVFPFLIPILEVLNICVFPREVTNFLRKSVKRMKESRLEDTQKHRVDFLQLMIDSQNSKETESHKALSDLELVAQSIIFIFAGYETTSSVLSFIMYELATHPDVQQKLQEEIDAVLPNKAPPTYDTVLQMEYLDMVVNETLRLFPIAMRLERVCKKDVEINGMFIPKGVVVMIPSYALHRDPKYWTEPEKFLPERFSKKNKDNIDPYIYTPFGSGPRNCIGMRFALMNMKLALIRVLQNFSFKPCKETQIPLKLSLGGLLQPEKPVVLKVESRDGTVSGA

SMILES: COc1nccc(N2CCc3nc(NC(=O)Nc4ccccc4C(=O)NC(C)C)sc3C2)n1 [Compound I-95]
- inhibition at 10 µM [1]: ≥ 95%
- inhibition at 10 min, 1 µM [2]: 3.7%

SMILES: COc1cc(N2CCc3nc(NC(=O)Nc4ccccc4C(=O)N[C@H](C)CO)sc3C2)nc(OC)n1 [Compound I-102]
- inhibition at 10 µM [1]: ≥ 95%
- hLMS_ox(at 0.5 μM) % [3]: 84.2%
- inhibition at 10 min, 1 µM [2]: 8.8%

SMILES: Cc1nc(NC(=O)Nc2ccccc2OCCC(C)C)sc1-c1csc(S(=O)(=O)N(C)CCN(C)C)c1 [Compound I-192]
- inhibition at 10 µM [1]: 94%
- Ki [4]: 480 nM

SMILES: CCNC(=O)c1ccccc1NC(=O)Nc1nc2c(s1)CN(c1cc(OC)nc(OC)n1)CC2 [Compound I-57]
- hLMS_ox(at 0.5 μM) % [3]: 83.5%
- inhibition at 10 min, 1 µM [2]: 5.3%
- MBI [5]: (−) (When 3 μmol/L or less, the compound is shown as (−))

SMILES: CCNC(=O)c1ccncc1NC(=O)Nc1nc2c(s1)CN(c1cc(Cl)nc(OC)n1)CC2 [Compound I-92]
- inhibition at 10 min, 1 µM [2]: 2.4%

SMILES: COc1cc(N2CCc3nc(NC(=O)Nc4ccccc4OCCC(C)C)sc3C2)nc(OC)n1 [Compound I-55]
- inhibition at 10 min, 1 µM [2]: 7.7%

SMILES: COc1nc(Cl)cc(N2CCc3nc(NC(=O)Nc4ccccc4C(=O)NC(C)C)sc3C2)n1 [Compound I-53]
- inhibition at 10 min, 1 µM [2]: 5.1%
- MBI [5]: (−) (When 3 μmol/L or less, the compound is shown as (−))

SMILES: COc1cc(N2CCc3nc(NC(=O)NC4=C(C(=O)NC(C)C)CCC4)sc3C2)nc(OC)n1 [Compound I-29]
- inhibition at 10 µM [1]: ≥ 95%
- inhibition at 10 min, 1 µM [2]: 8.7%
- MBI [5]: (−) (When 3 μmol/L or less, the compound is shown as (−))

SMILES: COc1cc(N2CCc3nc(NC(=O)Nc4ccccc4OC(C)C)sc3C2)nc(OC)n1 [Compound I-48]
- inhibition at 10 min, 1 µM [2]: 3.2%

SMILES: CCCCc1ccccc1NC(=O)Nc1nc2c(s1)CN(c1cc(OC)nc(OC)n1)CC2 [Compound I-150]
- inhibition at 10 min, 1 µM [2]: 3%

SMILES: COc1cncc(-c2ccc3nc(NC(=O)Nc4ccccc4C(=O)NC(C)C)cn3n2)c1 [Compound I-111]
- inhibition at 10 min, 1 µM [2]: 2.4%
- MBI [5]: (−) (When 3 μmol/L or less, the compound is shown as (−))

SMILES: COc1cncc(-c2cc(NC(=O)Nc3ccccc3OCCC(C)C)nn2C)c1 [Compound I-221]
- inhibition at 10 µM [1]: ≥ 95%
- Ki [4]: 680 nM

SMILES: CCNC(=O)c1ccncc1NC(=O)Nc1nc2c(s1)CN(c1cc(OC)nc(OC)n1)CC2 [Compound I-94]
- inhibition at 10 µM [1]: ≥ 95%
- inhibition at 10 min, 1 µM [2]: 6.8%
- MBI [5]: (−) (When 3 μmol/L or less, the compound is shown as (−))

SMILES: COc1cc(N2CCc3nc(NC(=O)Nc4ccccc4C(=O)NC4CC4)sc3C2)nc(OC)n1 [Compound I-16]
- inhibition at 10 µM [1]: 92%
- inhibition at 10 min, 1 µM [2]: 9.3%

SMILES: CCNC(=O)c1ccccc1NC(=O)Nc1nc2c(s1)CN(c1cc(Cl)nc(OC)n1)CC2 [Compound I-93]
- inhibition at 10 µM [1]: ≥ 95%
- inhibition at 10 min, 1 µM [2]: 6.8%
- MBI [5]: (−) (When 3 μmol/L or less, the compound is shown as (−))

SMILES: COc1cc(N2CCc3nc(NC(=O)Nc4ccccc4C(=O)N[C@@H](C)CO)sc3C2)nc(OC)n1 [Compound I-101]
- inhibition at 10 µM [1]: ≥ 95%
- hLMS_ox(at 0.5 μM) % [3]: 91.9%
- inhibition at 10 min, 1 µM [2]: 9.6%

SMILES: COc1nc(N(C)C)cc(N2CCc3nc(NC(=O)Nc4ccccc4C(=O)NC(C)C)sc3C2)n1 [Compound I-41]
- inhibition at 10 min, 1 µM [2]: 5.6%

SMILES: COc1cc(N2CCc3nc(NC(=O)Nc4ccccc4C(=O)NC(C)C)sc3C2)cnc1OC [Compound I-80]
- hLMS_ox(at 0.5 μM) % [3]: 82.1%
- inhibition at 10 min, 1 µM [2]: 5.5%
